Each structure is given as a SMILES string.

The target of the first data set is QPCTL (Homo sapiens (Human), UniProt Q9NXS2). The data set can be described thus: Assay A: biochemical QPCTL activity assay (MALDI-TOF MS). The following applies: compounds of the invention, Table 2; read-out: Inhibition of QPCTL: IC50. The method, then: (§1) QPCT or QPCTL dependent conversion of N-terminal glutamine to pyroglutamate of CD47 was monitored via MALDI-TOF MS. Test compounds were dissolved in 100% DMSO and serially diluted into clear 1,536-well microtiter plates. Enzymatic reactions were set up in assay buffer containing 20 mM Tris pH 7.5, 0.1 mM TCEP, 0.01% BSA, and 0.001% Tween20. […] The plates were incubated for 10 min in a humidified incubator at 24° C. Subsequently, 2.5 μL of CD47 peptide substrate surrogate (^19[…]^33) was added to each well (final concentration: 10 μM for QPCTL/20 μM for QPCT). The plates were mixed for 30 sec at 1,000 rpm and subsequently incubated for 40 min in a humidified incubator at 24° C. […] The plates were sealed with an adhesive foil, mixed for 30 s at 1,000 rpm and stored at room temperature until preparation of the MALDI target plates. […] QPCT or QPCTL activity was monitored by calculating the ratio between product and internal standard signals followed by normalization to high (100% activity) and low (0% activity) controls. Determination of compound potencies was obtained by fitting the dose-response data to a four-parameter logistical equation.
Sequence of QPCTL (Q9NXS2 whole entry): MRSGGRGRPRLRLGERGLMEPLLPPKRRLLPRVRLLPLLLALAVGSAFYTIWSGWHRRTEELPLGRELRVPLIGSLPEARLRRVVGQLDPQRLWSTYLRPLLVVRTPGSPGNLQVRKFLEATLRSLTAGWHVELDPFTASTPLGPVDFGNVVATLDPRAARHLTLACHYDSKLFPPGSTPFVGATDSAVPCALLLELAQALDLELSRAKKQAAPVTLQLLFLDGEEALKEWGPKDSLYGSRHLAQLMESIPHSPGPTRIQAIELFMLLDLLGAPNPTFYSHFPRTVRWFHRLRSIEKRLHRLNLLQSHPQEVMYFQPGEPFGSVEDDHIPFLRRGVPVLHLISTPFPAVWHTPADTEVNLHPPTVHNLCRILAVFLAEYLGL
In general, IC50 refers to the concentration needed to halve the response being measured. In the case of `Cn1cnnc1C1CCN(c2c(C#N)cccc2-c2cnsc2)CC1` [compound 2], the IC50 was found to be 12 nM.
Consider `Cc1cc(F)ncc1-c1cccc(C#N)c1N1CCC(c2nncn2C)CC1` [compound 4], for which the IC50 was determined as 2 nM.
On to `Cc1cc(-c2cccc(C#N)c2N2CCC(c3nncn3C)CC2)cnc1F` [compound 5], for which the concentration for half-maximal inhibition (IC50) amounted to 3 nM.
Regarding `Cn1cnnc1C1CCN(c2c(C#N)cccc2-c2cnc3nonc3c2)CC1` [compound 7], the IC50 was 2 nM.
For `Cc1ccncc1-c1cccc(C#N)c1N1CCC(c2nncn2C)CC1` [compound 8], the IC50 is 6 nM.
Still for that read-out and setting: as for `Cn1cnnc1C1CCN(c2c(C#N)cccc2-c2cncc(CO)c2)CC1` [compound 9], the figure is 11 nM; as for `CC#Cc1cncc(-c2cccc(C#N)c2N2CCC(c3nncn3C)CC2)c1` [compound 10], 18 nM.
On the same count and under the same terms, as for `Cc1cncc(-c2cccc(C#N)c2N2CCC(c3nncn3C)CC2)c1` [compound 11], the figure is 21 nM; as for `Cn1cnnc1C1CCN(c2c(C#N)cccc2-c2cnc3c(c2)CCCO3)CC1` [compound 12], 12 nM.
With `Cn1cnnc1C1CCN(c2c(C#N)cccc2-c2cncc(C(N)=O)c2)CC1` [compound 14], the IC50 was 3 nM.
Turning to `COC(=O)c1cncc(-c2cccc(C#N)c2N2CCC(c3nncn3C)CC2)c1` [compound 27], the IC50 worked out at 15 nM.

In the next data set the target is QPCT (Homo sapiens (Human), UniProt Q16769). Put plainly: Assay A: biochemical QPCT activity assay (MALDI-TOF MS). The following applies: compounds of the invention, Table 2; read-out: Inhibition of QPCT: IC50. The method, then: as §1
Sequence of QPCT (Q16769 29-361): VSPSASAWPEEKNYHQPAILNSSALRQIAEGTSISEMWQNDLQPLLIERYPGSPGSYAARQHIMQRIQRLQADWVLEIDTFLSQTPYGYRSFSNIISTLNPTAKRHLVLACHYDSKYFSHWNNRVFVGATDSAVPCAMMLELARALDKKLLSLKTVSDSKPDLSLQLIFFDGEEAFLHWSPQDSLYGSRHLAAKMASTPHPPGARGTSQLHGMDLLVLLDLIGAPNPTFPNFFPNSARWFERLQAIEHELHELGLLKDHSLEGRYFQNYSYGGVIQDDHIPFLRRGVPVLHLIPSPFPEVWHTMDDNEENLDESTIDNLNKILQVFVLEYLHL
Take `Cn1cnnc1C1CCN(c2c(C#N)cccc2-c2cnsc2)CC1` [compound 2]: the IC50 was 51 nM.
With `Cc1cc(F)ncc1-c1cccc(C#N)c1N1CCC(c2nncn2C)CC1` [compound 4], the half-maximal inhibitory concentration (IC50) turned out to be 12 nM.
Take `Cc1cc(-c2cccc(C#N)c2N2CCC(c3nncn3C)CC2)cnc1F` [compound 5]: the 50% inhibitory concentration (IC50) is 12 nM.
For `Cn1cnnc1C1CCN(c2c(C#N)cccc2-c2cnc3nonc3c2)CC1` [compound 7], the half-inhibitory concentration (IC50) turned out to be 12 nM.
On to `Cc1ccncc1-c1cccc(C#N)c1N1CCC(c2nncn2C)CC1` [compound 8], for which the IC50 was 31 nM.
The same measure, in the same setting: the same measure for `Cn1cnnc1C1CCN(c2c(C#N)cccc2-c2cncc(CO)c2)CC1` [compound 9]: 38 nM.
In the case of `CC#Cc1cncc(-c2cccc(C#N)c2N2CCC(c3nncn3C)CC2)c1` [compound 10], the IC50 came to 75 nM.
For the molecule `Cc1cncc(-c2cccc(C#N)c2N2CCC(c3nncn3C)CC2)c1` [compound 11], the half-inhibitory concentration (IC50) came out at 128 nM.
The same measure, in the same setting: as for `Cn1cnnc1C1CCN(c2c(C#N)cccc2-c2cnc3c(c2)CCCO3)CC1` [compound 12], the figure is 57 nM; as for `Cn1cnnc1C1CCN(c2c(C#N)cccc2-c2cncc(C(N)=O)c2)CC1` [compound 14], 21 nM.
Still for that read-out and setting: as for `COC(=O)c1cncc(-c2cccc(C#N)c2N2CCC(c3nncn3C)CC2)c1` [compound 27], the figure is 100 nM; as for `Cn1cnnc1C1(F)CCN(c2c(C#N)cccc2-c2cnc(O)nc2)CC1` [compound 54], 1 nM.

Another data set deals with SIRPα signalling induced by Raji cells. The data set can be described thus: Assay B: SIRPα signalling assay using Raji cells. The following applies: Homo sapiens, compounds of the invention, Table 4, read-out: Inhibition of SIRα signalling induced by Raji cells: IC50. It is filed as cell-based, human. The method, then: Bioassay reagent 1 of the PathHunter Bioassay detection kit (DiscoverX 93-0001) was added to each well of the plate using a multichannel pipette followed by a 15 min incubation at room temperature. Afterwards bioassay reagent 2 was added followed by 60 min incubation at room temperature (incubation in the dark).
The analysis of the data was performed using the luminescence signal generated by beta-galactosidase in the PathHunter reporter cell line. The luminescence measurement was done using a Pherastar Multi-Mode Reader.
Regarding `Cn1cnnc1C1CCN(c2c(C#N)cccc2-c2cnsc2)CC1` [compound 2], the IC50 stood at 715 nM.
For `Cc1cc(F)ncc1-c1cccc(C#N)c1N1CCC(c2nncn2C)CC1` [compound 4], the IC50 came out at 88 nM.
Same read-out and setting: as for `Cc1cc(-c2cccc(C#N)c2N2CCC(c3nncn3C)CC2)cnc1F` [compound 5], the figure is 93 nM; as for `Cn1cnnc1C1CCN(c2c(C#N)cccc2-c2cnc3nonc3c2)CC1` [compound 7], 170 nM.
Same read-out and setting: as for `Cc1ccncc1-c1cccc(C#N)c1N1CCC(c2nncn2C)CC1` [compound 8], the figure is 257 nM; as for `Cn1cnnc1C1CCN(c2c(C#N)cccc2-c2cncc(CO)c2)CC1` [compound 9], 309 nM.
On the same count and under the same terms, the same measure for `CC#Cc1cncc(-c2cccc(C#N)c2N2CCC(c3nncn3C)CC2)c1` [compound 10]: 692 nM.
With `Cc1cncc(-c2cccc(C#N)c2N2CCC(c3nncn3C)CC2)c1` [compound 11], the IC50 was found to be 372 nM.
`Cn1cnnc1C1CCN(c2c(C#N)cccc2-c2cnc3c(c2)CCCO3)CC1` [compound 12]: the concentration for half-maximal inhibition (IC50) came to 421 nM.
On to `Cn1cnnc1C1CCN(c2c(C#N)cccc2-c2cncc(C(N)=O)c2)CC1` [compound 14], for which the concentration for half-maximal inhibition (IC50) came out at 761 nM.
On to `COC(=O)c1cncc(-c2cccc(C#N)c2N2CCC(c3nncn3C)CC2)c1` [compound 27], for which the half-maximal inhibitory concentration (IC50) stood at 483 nM.
Turning to `Cn1cnnc1C1(F)CCN(c2c(C#N)cccc2-c2cnc(O)nc2)CC1` [compound 54], the half-maximal inhibitory concentration (IC50) amounted to 851 nM.

The next data set concerns SIRPα signalling induced by A549 cells. Put plainly: Assay B: SIRPα signalling assay using A549 cells. The data set is classed as cell-based, human. The following applies: Homo sapiens, compounds of the invention, Table 4, read-out: Inhibition of SIRα signalling induced by A549 cells: IC50. The method, then: Two cell types are independently used: the Raji cell line (lymphoblastlike human cell line derived from B lymphocytes from a Burkitt's lymphoma patient in 1963) and A549 cells (adenocarcinomic human alveolar basal epithelial cells).
Test compounds were dissolved in 100% DMSO and serially diluted into a white 384-well microtiter cell culture plate (PerkinElmer #60076780 in case of Raji assay; PDL-coated plates Greiner #781945 in case of A549 assay). 5000 Raji cells (ATCC #CC86) or 5000 A549 cells (ATCC #CCL-185) in Assay Complete Cell Plating reagent 30 (DiscoverX 93-0563R30B) were added per well. The assay plate was incubated for 48 h at 37° C., 95% humidity and 5% CO2. 15000 reporter cells (Jurkat PathHunter SIRPα V1, DiscoverX #93-1135C19) were added to each well, and the plate was incubated for 5 h at 37° C., 95% humidity and 5% CO2. Bioassay reagent 1 of the PathHunter Bioassay detection kit (DiscoverX 93-0001) was added to each well of the plate using a multichannel pipette followed by a 15 min incubation at room temperature. Afterwards bioassay reagent 2 was added followed by 60 min incubation at room temperature (incubation in the dark).
The analysis of the data was performed using the luminescence signal generated by beta-galactosidase in the PathHunter reporter cell line. The luminescence measurement was done using a Pherastar Multi-Mode Reader. Dose-response curves & IC50 data were calculated with 4-parameter sigmoidal dose response formula.
`Cn1cnnc1C1CCN(c2c(C#N)cccc2-c2cnsc2)CC1` [compound 2]: the IC50 was found to be 40 nM.
On the same count and under the same terms, the same measure for `Cc1cc(F)ncc1-c1cccc(C#N)c1N1CCC(c2nncn2C)CC1` [compound 4]: 13 nM; for `Cc1cc(-c2cccc(C#N)c2N2CCC(c3nncn3C)CC2)cnc1F` [compound 5]: 26 nM; for `Cn1cnnc1C1CCN(c2c(C#N)cccc2-c2cnc3nonc3c2)CC1` [compound 7]: 67 nM.
For the molecule `Cc1ccncc1-c1cccc(C#N)c1N1CCC(c2nncn2C)CC1` [compound 8], the IC50 came to 348 nM.
As for `CC#Cc1cncc(-c2cccc(C#N)c2N2CCC(c3nncn3C)CC2)c1` [compound 10], the IC50 came to 348 nM.
As for `Cc1cncc(-c2cccc(C#N)c2N2CCC(c3nncn3C)CC2)c1` [compound 11], the concentration for half-maximal inhibition (IC50) stood at 436 nM.
Turning to `Cn1cnnc1C1CCN(c2c(C#N)cccc2-c2cnc3c(c2)CCCO3)CC1` [compound 12], the 50% inhibitory concentration (IC50) was 243 nM.
The same measure, in the same setting: as for `Cn1cnnc1C1(F)CCN(c2c(C#N)cccc2-c2cnc(O)nc2)CC1` [compound 54], the figure is 205 nM.

System in a further data set: not listed separately
Put plainly: Assay C: permeability in CACO-2 cells. It is filed as in vitro ADME. To be noted: human, pH 7.2; Caco-2, apical to basolateral; compounds of the invention, Table 7. The protocol:
Compounds are dissolved in appropriate solvent (like DMSO, 1-20 mM stock solutions). […] The transport solution (TL) is applied to the apical or basolateral donor side for measuring A-B or B-A permeability (3 filter replicates), respectively. Samples are collected at the start and end of experiment from the donor and at various time intervals for up to 2 hours also from the receiver side for concentration measurement by HPLC-MS/MS or scintillation counting. Sampled receiver volumes are replaced with fresh receiver solution.
The term Papp A→B denotes how fast a substance crosses the layer from the apical side. Consider `Cn1cnnc1C1CCN(c2c(C#N)cccc2-c2cnsc2)CC1` [compound 2], for which the Papp A→B worked out at 25 ×10⁻⁶ cm/s.
For `Cc1cc(F)ncc1-c1cccc(C#N)c1N1CCC(c2nncn2C)CC1` [compound 4], the apical-to-basolateral permeability (Papp A→B) came to 16 ×10⁻⁶ cm/s.
On the same count and under the same terms, as for `Cc1cc(-c2cccc(C#N)c2N2CCC(c3nncn3C)CC2)cnc1F` [compound 5], the figure is 23 ×10⁻⁶ cm/s; as for `Cn1cnnc1C1CCN(c2c(C#N)cccc2-c2cnc3nonc3c2)CC1` [compound 7], 1.5 ×10⁻⁶ cm/s.
`Cc1ccncc1-c1cccc(C#N)c1N1CCC(c2nncn2C)CC1` [compound 8]: the apical-to-basolateral permeability (Papp A→B) stood at 3.9 ×10⁻⁶ cm/s.
`CC#Cc1cncc(-c2cccc(C#N)c2N2CCC(c3nncn3C)CC2)c1` [compound 10] yielded an apical-to-basolateral permeability (Papp A→B) of 25 ×10⁻⁶ cm/s. This Papp A→B lies about 6.4-fold higher than the previous one.
`Cc1cncc(-c2cccc(C#N)c2N2CCC(c3nncn3C)CC2)c1` [compound 11] showed an apical-to-basolateral permeability (Papp A→B) of 8.6 ×10⁻⁶ cm/s.
On the same count and under the same terms, as for `Cn1cnnc1C1CCN(c2c(C#N)cccc2-c2cnc3c(c2)CCCO3)CC1` [compound 12], the figure is 2.7 ×10⁻⁶ cm/s; as for `Cn1cnnc1C1CCN(c2c(C#N)cccc2-c2cncc(C(N)=O)c2)CC1` [compound 14], 0.1 ×10⁻⁶ cm/s.
The same measure, in the same setting: the same measure for `COC(=O)c1cncc(-c2cccc(C#N)c2N2CCC(c3nncn3C)CC2)c1` [compound 27]: 4.4 ×10⁻⁶ cm/s; for `Cn1cnnc1C1(F)CCN(c2c(C#N)cccc2-c2cnc(O)nc2)CC1` [compound 54]: 0.1 ×10⁻⁶ cm/s.

Staying with this data set, now noted: human, pH 7.2; Caco-2; compounds of the invention, Table 7.
Broadly, the efflux ratio is the permeability from basolateral to apical divided by that in the opposite direction, in the common usage. Consider `Cn1cnnc1C1CCN(c2c(C#N)cccc2-c2cnsc2)CC1` [compound 2], for which the efflux ratio worked out at 1.8.
Same read-out and setting: as for `Cc1cc(F)ncc1-c1cccc(C#N)c1N1CCC(c2nncn2C)CC1` [compound 4], the figure is 4.1; as for `Cc1cc(-c2cccc(C#N)c2N2CCC(c3nncn3C)CC2)cnc1F` [compound 5], 1.6; as for `Cn1cnnc1C1CCN(c2c(C#N)cccc2-c2cnc3nonc3c2)CC1` [compound 7], 19.3.
Still for that read-out and setting: the same measure for `Cc1ccncc1-c1cccc(C#N)c1N1CCC(c2nncn2C)CC1` [compound 8]: 9.5; for `CC#Cc1cncc(-c2cccc(C#N)c2N2CCC(c3nncn3C)CC2)c1` [compound 10]: 2.2; for `Cc1cncc(-c2cccc(C#N)c2N2CCC(c3nncn3C)CC2)c1` [compound 11]: 7.7.
For the molecule `Cn1cnnc1C1CCN(c2c(C#N)cccc2-c2cnc3c(c2)CCCO3)CC1` [compound 12], the efflux ratio was 23.7.
The same measure, in the same setting: the same measure for `Cn1cnnc1C1CCN(c2c(C#N)cccc2-c2cncc(C(N)=O)c2)CC1` [compound 14]: 50.9.
Consider `COC(=O)c1cncc(-c2cccc(C#N)c2N2CCC(c3nncn3C)CC2)c1` [compound 27], for which the efflux ratio is 13.4.
`Cn1cnnc1C1(F)CCN(c2c(C#N)cccc2-c2cnc(O)nc2)CC1` [compound 54]: the efflux ratio was found to be 11.1.

Source of the values: patent US20240246981A1, “[…] DERIVATIVES AS INHIBITORS OF […]-PEPTIDE CYCLOTRANSFERASE AND […]-PEPTIDE CYCLOTRANSFERASE LIKE PROTEIN” (Boehringer Ingelheim International GmbH, priority 2022, published 2024).
